Publication PMC8659243, “Design, Synthesis and Tumour-Selective Toxicity of Novel 1-[3-{3,5-Bis(benzylidene)-4-oxo-1-piperidino}-3-oxopropyl]-4-piperidone Oximes and Related Quaternary Ammonium Salts” (Molecules, 2021)
Counter-ions that a name gives are not always drawn.

Key:
Ca9-22 cells = assay: Cytotoxicity against Ca9-22 cells, MTT method, 48 h; assay type: cell-based, human; details: for CC50: Homo sapiens, Ca9-22, concentration required to kill 50% of the cells, 48 h, MTT, read-out: CC50 Ca9-22; for SI Ca9-22: average CC50 towards HGF, HPLF, HPC divided by CC50 against Ca9-22
Experimental: (§1) A literature procedure was followed when the compounds in series 3 and 4 were evaluated against three human oral squamous cell carcinoma cell lines Ca9-22 (RCB-1976), HSC-2 (RCB1945), HSC-4 (RCB1902) (purchased from RIKEN Cell Bank, Tukuba, Japan) and three human normal oral cells, gingival fibroblast (HGF), periodontal ligament fibroblast (HPLF) and pulp cells (HPC) (established according to the guideline of the intramural ethic committee, A0808) except the duration of incubation was increased from 24 h to 48 h. In brief, various concentrations of the compounds were added to the DMEM media, which was supplemented by 10% heat-inactivated fetal bovine serum. Incubation was undertaken at 37 °C. At the completion of the experiment, cell viability was determined by the MTT method.

HSC-2 cells = assay: Cytotoxicity against HSC-2 cells, MTT method, 48 h; assay type: cell-based, human; details: for CC50: Homo sapiens, HSC-2, concentration required to kill 50% of the cells, 48 h, MTT; for SI HSC-2: average CC50 towards HGF, HPLF, HPC divided by CC50 against HSC-2
Experimental: as §1

HSC-4 cells = assay: Cytotoxicity against HSC-4 cells, MTT method, 48 h; assay type: cell-based, human; details: for CC50: Homo sapiens, HSC-4, concentration required to kill 50% of the cells, 48 h, MTT, read-out: CC50 HSC-4; for SI HSC-4: average CC50 towards HGF, HPLF, HPC divided by CC50 against HSC-4
Experimental: as §1

[1] = test system: Ca9-22, HSC-2 and HSC-4 cells; assay: Average over Ca9-22, HSC-2 and HSC-4 neoplastic cells; assay type: cell-based, human; details: for CC50: Homo sapiens, average of Ca9-22, HSC-2 and HSC-4, read-out: Average CC50; for Average SI: average of SI for Ca9-22, HSC-2 and HSC-4
Experimental: In order to assess whether the compounds in series 3 and 4 are more toxic to neoplasms than non-malignant cells, selective index (SI) figures were calculated. In the in vivo situation, a tumour is surrounded by a number of non-malignant cells.
In order to identify the most promising lead compounds in terms of both cytotoxic potencies and favourable SI values, potency–selectivity expression (PSE) values were computed. […] Outstanding results may be noted for four compounds that have PSE values in excess of 100,000 namely 3d, 4c–e. […] However, the relative SI/PSE distribution patterns between series 3 and 4 (from a to h) are nearly superimposable with each other (Figure 3). […] It has been reported that 3,5-bis(3-iodo-5-methoxy-4-propoxybenzylidene)-N-acetylpiperidin-4-one inhibited tubulin and destabilization of microtubules, while 3,5-bis(3,4,5-trimethoxybenzylidene)-N-benzoylpiperidin-4-one destabilizes the microtubules. Thus, it remained to investigate whether compound 4d acts as an inhibitor of the microtubule.
as §1

[2] = Cytotoxicity against non-malignant HGF cells, MTT method, 48 h; assay type: cell-based; details: human, gingival fibroblasts (HGF)
Experimental: as §1

[3] = Cytotoxicity against non-malignant HPLF cells, MTT method, 48 h; assay type: cell-based; details: human, periodontal ligament fibroblasts (HPLF)
Experimental: as §1

[4] = Cytotoxicity against non-malignant HPC cells, MTT method, 48 h; assay type: cell-based; details: human, pulp cells (HPC)
Experimental: as §1

[5] = Average over HGF, HPLF and HPC non-malignant cells; assay type: cell-based; details: human, HPLF and HPC non-malignant cells (average of the three)
Experimental: as §1

[6] = test system: CEM T-lymphoblastic leukemia cells; assay: Cytotoxicity against CEM cells, MTT method, 24 h; assay type: cell-based; details: Homo sapiens, CCRF-CEM, concentration required to inhibit cell growth by 50%
Experimental: The method used for the evaluation of various compounds against human CEM cells has been reported previously. In brief, cells were grown in RPMI-1640 medium supplemented with 10% heat-inactivated fetal bovine serum. Different concentrations of compounds were added to the media, and after 24 h incubation, cytotoxicity was measured by the MTT method.

HL-60 (TB) cells = assay: NCI in vitro screen, leukemia HL-60 (TB); assay type: cell-based; details: Homo sapiens
Description: (§2) In view of the encouraging result with CEM leukemic cells, consideration was given to an assessment in the NCI in vitro screening program. The oximes, but not the quaternary ammonium salts, were accepted for bioevaluation. Examination of the mean graphs confirms the sensitivity of leukemic cells to these compounds.

K-562 cells = assay: NCI in vitro screen, leukemia K-562; assay type: cell-based; details: Homo sapiens, K562
Description: as §2

Molt-4 cells = assay: NCI in vitro screen, leukemia Molt-4; assay type: cell-based; details: Homo sapiens
Description: as §2

RPMI-8226 cells = assay: NCI in vitro screen, leukemia RPMI-8226; assay type: cell-based; details: Homo sapiens
Description: as §2

SR cells = assay: NCI in vitro screen, leukemia SR; assay type: cell-based; details: Homo sapiens
Description: as §2

leukemia cells = assay: NCI in vitro screen, average of leukemia cells; assay type: cell-based; details: Homo sapiens
Description: as §2

All Cell Lines = assay: NCI in vitro screen, all cell lines; assay type: cell-based; details: Homo sapiens
Description: (§3) One particular reference drug is 5-fluorouracil, which is used in treating colon cancers.

Colo205 cells = assay: NCI in vitro screen, colon cancer Colo205; assay type: cell-based; details: Homo sapiens, COLO 205
Description: as §3

HCC-2998 cells = assay: NCI in vitro screen, colon cancer HCC-2998; assay type: cell-based; details: Homo sapiens
Description: as §3

HCT-116 cells = assay: NCI in vitro screen, colon cancer HCT-116; assay type: cell-based; details: Homo sapiens
Description: as §3

HCT-15 cells = assay: NCI in vitro screen, colon cancer HCT-15; assay type: cell-based; details: Homo sapiens
Description: as §3

HT29 cells = assay: NCI in vitro screen, colon cancer HT29; assay type: cell-based; details: Homo sapiens, HT-29
Description: as §3

KM12 cells = assay: NCI in vitro screen, colon cancer KM12; assay type: cell-based; details: Homo sapiens
Description: as §3

SW-620 cells = assay: NCI in vitro screen, colon cancer SW-620; assay type: cell-based; details: Homo sapiens
Description: as §3

colon cancer cells = assay: NCI in vitro screen, average of colon cancer cells; assay type: cell-based; details: Homo sapiens
Description: as §3

SMILES | CC50 (Ca9-22 cells) [nM] | SI Ca9-22 (Ca9-22 cells) | CC50 (HSC-2 cells) [nM] | SI HSC-2 (HSC-2 cells) | CC50 (HSC-4 cells) [nM] | SI HSC-4 (HSC-4 cells) | CC50 [1] [nM] | Average SI [1] | CC50 at 48 h [2] [nM] | CC50 at 48 h [3] [nM] | CC50 at 48 h [4] [nM] | CC50 at 48 h [5] [nM] | IC50 [6] [nM] | further results
O=C1/C(=C/c2ccc(F)cc2)CN(C(=O)CCN2CCC(=NO)CC2)C/C1=C\c1ccc(F)cc1 [Compound 3b, (3~{E},5~{E})-3,5-bis[(4-fluorophenyl)methylene]-1-[3-(4-hydroximino-1-piperidyl)propanoyl]piperidin-4-one hydrochloride] | 370 ± 190 | 28.1 | 730 ± 130 | 14.3 | 200 ± 80 | 52.0 | 430 | 31.5 | 7120 ± 40 | 9730 ± 230 | 14200 ± 2000 | 10400 | 1780 ± 210 | IC50 (HL-60 (TB) cells): 1550 nM; IC50 (K-562 cells): 350 nM; IC50 (Molt-4 cells): 330 nM; IC50 (RPMI-8226 cells): 290 nM; IC50 (SR cells): 250 nM; IC50 (leukemia cells): 520 nM; IC50 (All Cell Lines): 1150 nM; IC50 (Colo205 cells): 1500 nM; IC50 (HCC-2998 cells): 1410 nM; IC50 (HCT-116 cells): 220 nM; IC50 (HCT-15 cells): 370 nM; IC50 (HT29 cells): 320 nM; IC50 (KM12 cells): 230 nM; IC50 (SW-620 cells): 200 nM; IC50 (colon cancer cells): 610 nM
O=C1/C(=C/c2ccc(Cl)cc2)CN(C(=O)CCN2CCC(=NO)CC2)C/C1=C\c1ccc(Cl)cc1 [Compound 3c, (3~{E},5~{E})-3,5-bis[(4-chlorophenyl)methylene]-1-[3-(4-hydroximino-1-piperidyl)propanoyl]piperidin-4-one hydrochloride] | 120 ± 80 | 113 | 660 ± 140 | 20.5 | 180 ± 30 | 75.0 | 320 | 69.5 | 6400 ± 350 | 8030 ± 60 | 26100 ± 35900 | 13500 | 15900 ± 940 | IC50 (HL-60 (TB) cells): 560 nM; IC50 (K-562 cells): 160 nM; IC50 (Molt-4 cells): 280 nM; IC50 (RPMI-8226 cells): 160 nM; IC50 (SR cells): 40 nM; IC50 (leukemia cells): 240 nM; IC50 (All Cell Lines): 1620 nM; IC50 (Colo205 cells): 350 nM; IC50 (HCC-2998 cells): 310 nM; IC50 (HCT-116 cells): 210 nM; IC50 (HCT-15 cells): 270 nM; IC50 (HT29 cells): 300 nM; IC50 (KM12 cells): 220 nM; IC50 (SW-620 cells): 150 nM; IC50 (colon cancer cells): 260 nM
O=C1/C(=C/c2ccc(O)cc2)CN(C(=O)CCN2CCC(=NO)CC2)C/C1=C\c1ccc(O)cc1 [Compound 3i, (3~{E},5~{E})-3,5-bis[(4-hydroxyphenyl)methylene]-1-[3-(4-hydroximino-1-piperidyl)propanoyl]piperidin-4-one] | 16500 ± 2350 | 5.10 | 18000 ± 2060 | 4.68 | 19300 ± 1610 | 4.36 | 17900 | 4.71 | 64900 ± 5660 | 88300 ± 4560 | 99300 ± 1160 | 84200 | 11100 ± 1010 | –
C[N+]1(CCC(=O)N2C/C(=C\c3ccc([N+](=O)[O-])cc3)C(=O)/C(=C/c3ccc([N+](=O)[O-])cc3)C2)CCC(=NO)CC1 (stereo not shown) [Compound 4e, (3~{E},5~{E})-1-[3-(4-hydroximino-1-piperidyl)propanoyl]-3,5-bis[(4-nitrophenyl)methylene]piperidin-4-one methiodide] | 20 | 104 | 50 ± 10 | 41.4 | 60 ± 10 | 34.5 | 40 | 60.0 | 1150 ± 350 | 2590 ± 270 | 2460 ± 1230 | 2070 | 870 ± 20 | –
Cc1ccc(/C=C2\CN(C(=O)CC[N+]3(C)CCC(=NO)CC3)C/C(=C\c3ccc(C)cc3)C2=O)cc1 (stereo not shown) [Compound 4f, (3~{E},5~{E})-3,5-bis[(4-methylphenyl)methylene]-1-[3-(4-hydroximino-1-piperidyl)propanoyl]piperidin-4-one methiodide] | 180 ± 20 | 53.1 | 460 ± 100 | 20.8 | 400 ± 230 | 23.9 | 350 | 32.6 | 5120 ± 240 | 8370 ± 810 | 15200 ± 1900 | 9560 | 4180 ± 650 | –
COc1ccc(/C=C2\CN(C(=O)CC[N+]3(C)CCC(=NO)CC3)C/C(=C\c3ccc(OC)cc3)C2=O)cc1 (stereo not shown) [Compound 4g, (3~{E},5~{E})-3,5-bis[(4-methoxyphenyl)methylene]-1-[3-(4-hydroximino-1-piperidyl)propanoyl]piperidin-4-one methiodide] | 310 ± 170 | 41.0 | 680 ± 40 | 18.7 | 660 ± 50 | 19.2 | 550 | 26.3 | 6300 ± 270 | 16200 ± 4050 | 15600 ± 3160 | 12700 | 13000 ± 950 | –
COc1cc(/C=C2\CN(C(=O)CC[N+]3(C)CCC(=NO)CC3)C/C(=C\c3cc(OC)c(OC)c(OC)c3)C2=O)cc(OC)c1OC (stereo not shown) [Compound 4h, (3~{E},5~{E})-1-[3-(4-hydroximino-1-piperidyl)propanoyl]-3,5-bis[(3,4,5-trimethoxyphenyl)methylene]piperidin-4-one methiodide] | 70 ± 10 | 20.4 | 220 ± 40 | 6.50 | 180 ± 40 | 7.94 | 160 | 11.6 | 620 ± 60 | 1320 ± 40 | 2350 ± 820 | 1430 | 5120 ± 140 | –
COc1cccc2c1C(=O)c1c(O)c3c(c(O)c1C2=O)C[C@@](O)(C(=O)CO)C[C@@H]3O[C@H]1C[C@H](N)[C@H](O)[C@H](C)O1 [Doxorubicin, reference compound] | 470 ± 120 | 15.6 | 110 ± 10 | 66.5 | 150 ± 50 | 48.7 | 240 | 43.6 | 3440 ± 530 | 9730 ± 470 | 8770 ± 2140 | 7310 | – | –
